Assays:
lymph node T cell = test: antigen-primed lymph node T cell proliferative recall response (3H-thymidine incorporation); format: cell-based, NOD, Balb/c and AKR mice; conditions: for effect on GABA-mediated inhibition of T cell proliferation / immuno-inhibitory effect of GABA on co-incubation with the compound: co-incubation; for effect on GABA-mediated inhibition of T cell proliferation: 1 μM-500 μM; for immuno-inhibitory effect of GABA on co-incubation with the compound: different (also high) concentrations of GABA, GADp35
Protocol: NOD, Balb/c and AKR mice were immunized with an immunogenic foreign (HEL) or self (GAD) peptide in 50% CFA. […] Groups of 5 mice were tested in two independent experiments.
Lymph node mononuclear cells from GADp35 primed NOD mice were pretreated with different concentrations of muscimol or baclofen in vitro, and then challenged with 7 μM GADp35 to stimulate antigen specific T cell proliferation. The data are presented as the per cent ^3H-thymidine incorporation relative to control peptid-estimulated cells without muscimol or baclofen treatment. Lymph node mononuclear cells in medium alone served as negative controls. […] Groups of 5-6 mice were tested in two independent experiments.
Groups of 5 mice were tested in three independent experiments.
Lymph node mononuclear cells from NOD mice which were immunized with GADp35 were cultured with bicuculline, RU5135 or picrotoxin. […] The data are expressed as the per cent ^3H-thymidine incorporation relative to control antigen-stimulated cells without any drug treatment. […] Groups of 5-6 mice were tested in three independent experiments.
Three strains of mice with different MHC class II alleles were immunized with an immunogenic peptide from hen egg lysozyme (HEL). […] Mice were injected with 20 nM peptide in 50% complete Freund's adjuvant (CFA, Gibco) in their hind food-pad.
GAD peptides were selected from an overlapping set of peptides which span the GAD molecule (Atkinson et al. (1994) J. Clin. Invest. 94:2125-2129). GAD65 peptide 35 (GADp35) contains a self-antigen determinant for NOD (H-2^NOD; Taconic Farms) and BALB/c (H-2^d) mice (Jackson Laboratory) and GAD peptide 25 (GADp25) contains a self-antigen determinant for AKR (H-2^k) mice (Jackson Laboratory; Kaufman et al. (1993) Nature 366:69-72). Following immunization with 20 nM of immunogenic GAD peptide in 50% complete Freund's adjuvant (CFA, Gibco), T cell proliferation was assayed as described above.

splenic T cell = test: anti-CD3 stimulated splenic T cell proliferation (3H-thymidine incorporation); format: cell-based, Balb/c mice
Protocol: During the last 8 hours of incubation, ^3H-thymidine (1 μCi/well) was added into each well to determine T cell proliferation. […] The background level of ^3H-thymidine incorporation in medium alone was 1,965-2,400 cpm. Groups of 5-6 mice were tested in two independent experiments.
The data are presented as the mean percent ^3H-thymidine incorporation relative to the positive control from groups of 5-6 mice which were tested in 2-3 independent experiments.

NOD-scid mice = test: adoptive transfer of IDDM to NOD-scid mice; format: in vivo; conditions: 600 μg/day
Source text: Ten to twenty million splenocytes from NOD mice with recent onset of IDDM were intravenously injected into recipient 6-week-old mice. […] (n=12 for both groups).
A NOD strain congenic for the severe combined immunodeficiency (scid) mutation developed to study diabetogenesis in NOD mice was used in the adoptive transfer experiment. Neither insulitis nor diabetes is observed in the NOD-scid mice because they lack functional lymphocytes. This ensured that the T cells responsible for diabetes in recipient NOD-scid mice were derived from the diabetic donor NOD mice. Only female NOD mice were used since they incur a higher incidence of IDDM than males.
The control mice received a placebo pellet instead the GABA pellet. The mice were monitored for diabetes onset by testing their urine glucose levels with Tes-tape and blood glucose levels with a glucometer. The onset of IDDM is defined as two consecutive blood glucose readings of over 300 mg/dl.

[1] = test system: lymph node mononuclear cells from GADp35 immunized NOD mice; test: IL-2 production by antigen stimulated T cells (CTLL proliferation readout); format: cell-based; conditions: GADp35 at 2, 7 and 20 micromolar; 36 hours; different concentrations of GABA
Protocol: The IL-2 activity in supernatant was determined by IL-2-dependent CTLL proliferation. The data are expressed as IL-2 units/ml±SD.
(§1) Mice (6-8 weeks in age) were injected with 20 nM GADp35 peptide in 50% complete Freund's adjuvant (CFA, Gibco) in their hind food-pad. […] The supernatant of the cultured cells was harvested and the activity of IL-2 was measured using the IL-2-dependent cell line CTLL-2. Recombinant mouse IL-2 (Genzyme) was used as a standard.

NOD mice = test: antigen-primed DTH response (KLH footpad swelling); format: in vivo
Protocol: The next day, the mice were immunized with KLH in 50% CFA at the base of their tail. One week later, the mice were challenged with KLH in PBS in their right footpad, while the left footpad received ovalbumin in PBS as a control. Footpad swelling was expressed as the average size increase of the KLH injected footpad compared to the control footpad±SD (n=5 mice/group, *p<0.005, **p<0.002, ***p<0.001).
The next day, the mice were immunized with 100 μg keyhole limpet hemocyanin (KLH, Sigma), a prototypic foreign antigen, in 50% CFA at the base of their tail. One week later, the mice were challenged with KLH (100 μg in 25 μl PBS) in their right footpad, while the left footpad received ovalbumin (100 μg in […] PBS) as a control. Both hind feet were measured before injection and at 24, 48, 72 and 96 hrs post injection using a monostat caliper. Footpad swelling was expressed as the average size increase (in millimeters) of the KLH-injected footpad compared to the control ovalbumin-injected footpad of each animal. The measurements were conducted in a blinded fashion on coded animals.

[2] = test system: mononuclear splenic cells; test: T cell response to PMA and ionomycin; format: cell-based, mice; conditions: 10 μM-10 mM
CTLL-2 cells = test: control CTLL-2 cell response to recombinant murine IL-2; format: cell-based, mouse; conditions: 10 μM-10 mM
Protocol: as §1

[3] = 21-day slow release GABA pellet
[4] = NOD, Balb/c and AKR mice, 7 μM peptide, different concentrations of GABA

N[C@@H](CCC(=O)O)C(=O)O [glutamic acid]
effect on T cell proliferative responses, alone or co-incubated with GABA (lymph node T cell; 10 μM-10 mM): little effect

NCc1cc(=O)[nH]o1 [muscimol]
reduction of antigen primed T cell responses (lymph node T cell; 300 μM, GADp35 primed NOD mice): approximately 40% | antigen-induced T cell proliferation (lymph node T cell; different concentrations, 7 μM GADp35): inhibit in a dose-dependent manner | anti-CD3 induced T cell proliferation (splenic T cell; different concentrations): inhibit in a dose-dependent manner

NCCC(=O)O [β-alanine]
effect on T cell proliferative responses, alone or co-incubated with GABA (lymph node T cell; 10 μM-10 mM): little effect

C=CC(N)CCC(=O)O (centres unmarked) [γ-vinyl-GABA]
effect on GABA-mediated inhibition of T cell proliferation (lymph node T cell): did not significantly affect

O=C(O)C1CCCNC1 (centres unmarked) [nipecotic acid]
effect on GABA-mediated inhibition of T cell proliferation (lymph node T cell): did not significantly affect

CCCC(C)C1(CC)C(=O)NC(=O)NC1=O (centres unmarked) [pentobarbital]
effect on GABA inhibition of T cell responses (lymph node T cell; 3 μM with different concentrations of GABA, 7 μM GADp35, 96 hours): potentiated the actions of GABA | impact of compound without GABA on antigen-primed T cell proliferation (lymph node T cell; 3 μM, without GABA): little impact

C[C@]12CC[C@@H](O)C[C@H]1CC[C@@H]1[C@@H]2C(=O)C[C@]2(C)N=C(N)C[C@@H]12 [RU5315]
immuno-inhibitory effect of GABA on co-incubation with the compound (lymph node T cell): greatly reduced

NCC(CC(=O)O)c1ccc(Cl)cc1 (centres unmarked) [baclofen]
effect on T cell proliferation (lymph node T cell; 10 μM-10 mM): little effect | interference with the immuno-suppressive action of muscimol (lymph node T cell; 10 μM-10 mM, with muscimol): did not interfere

NCCCC(=O)O [GABA, γ-Aminobutyric acid]
diabetes incidence after adoptive transfer (NOD-scid mice; [3]): significantly reduced diabetes incidence | onset of IDDM beginning at (NOD-scid mice; [3]): 4 weeks | onset of IDDM in mice that developed it (NOD-scid mice; [3]): delayed onset | onset of IDDM beginning at (NOD-scid mice; 60-day slow release GABA pellet): 7 weeks | antigen-induced IL-2 secretion [1]: reduced in a dose-dependent manner | T cell recall proliferation to foreign antigen (HEL peptides) (lymph node T cell; [4]): inhibit T cell proliferation to the immunogens in a dose-dependent manner | T cell recall proliferation to self-antigen (GAD peptides) (lymph node T cell; [4]): inhibit proliferative T cell responses to the injected antigen in all three strains of mice in a dose-dependent manner | signs of toxicity (NOD mice; mice implanted with GABA-releasing pellets (600 μg GABA/day)): no obvious signs of toxicity | less footpad swelling in response to KLH than placebo-treated mice (NOD mice; pellet releasing 600 μg/day GABA, under the skin, 24-72 hour response period, p<0.005): 30-50% | effect on T cell response to PMA and ionomycin [2]: did not significantly affect | CTLL-2 cell response to recombinant murine IL-2 on addition of compound (CTLL-2 cells): unaffected | impact on T cell survival (splenic T cell; in vitro culture): little impact on T cell survival | T cell proliferation with the compound itself (without anti-CD3) (splenic T cell; without anti-CD3): failed to stimulate T cell proliferation

picrotoxin
immuno-inhibitory effect of GABA on co-incubation with the compound (lymph node T cell): almost abolished

Reference: patent publication US6350769B1 (The Regents of the University of California, priority 1999, dated 2002)
